Measurements taken from patent US8088772B2, “Sulfonamides and their use as a medicament” (The Genetics Company, Inc., priority 2006, dated 2012).

Key:
Wnt pathway = test: Cell Assay (CA): inhibition of Wnt activity in cancer cells, Tcf reporter gene; type: cell-based; details: inhibition class in the Cell Assay
Excerpt: Inhibition of Wnt Activity in Cancer Cells
The effect of β-catenin/BCL9 inhibitors identified in the ELISA-based protein-protein interaction assay on the Wnt pathway can be evaluated in a cell culture system using a reporter gene responsive to the Tcf/Lef family of transcription factors or by quantitative analysis of Wnt target genes in appropriate cell lines.
A reporter gene is a construct which comprises a readily detectable or assayable gene such β-galactosidase, green fluorescent protein, chloramphenicol acetyltransferase or luciferase, linked in cis to a transcription factor response element and a minimal promoter. Depending on the expression vectors used, this protocol can be applied, e.g. for mammalian as well as for Drosophila cell lines. For instance, colon cancer cells with constitutively active Wnt pathway like DLD-1 or SW620 (ATCC) are a well suitable system. Hereby, a Tcf-4 driven luciferase reporter plasmid (i.e. TOP-FLASH, Upstate biotechnology, New York, USA) is transiently or stably transfected into cells known in the art. Any means for introducing genetic material into cells can be used, including but not limited to infection, electroporation or transfection. For instance, to introduce DNA into DLD-1 cells, a lipofection agent like the Lipofectamine transfection reagent (Life Technologies, Inc.) can be used. By transient transfection protocols, a second reporter gene, e.g. the renilla luciferase reporter plasmid pRL-SV40 (Promega Corporation, Madison USA), needs to be co-transfected to normalize for transfection efficiency. Drugs are added to the media 24 h after trans-fection (transient transfection) or 24 h after seeding of the cells (stably transfected cells). Cell extracts are prepared 24 to 48 h later and assayed for reporter gene activity as described by the manufacturer (eg. for luciferase activity: Promega Corporation). Compounds reducing reporter gene activity more than 50% compared to solvent alone treated cells are considered as hits. In parallel, toxicity can be assessed for instance by the yellow tetrazolium salt cell proliferation assay (MTT) assay.

βCatenin-BCL9 = test: ELISA based protein-protein interaction assay; type: binding; details: inhibition class of the βCatenin-BCL9 interaction
Procedure: In vitro ELISA-based Protein-protein Interaction Assay
Protein Production in Bacteria
cDNAs including the binding domains of Lgs and βCatenin were fused downstream of glutathione-S-transferase (GST) cDNA in pGEX-4T inducible bacterial expression vector (Pharmacia). Fusion proteins were produced in BL21 bacteria (e.g. Stratagene) following manufacturer's recommendation.
To isolate the produced fusions protein bacteria were lysed in sonication buffer (10 mM Tris HCl pH 8.0, 150 mM NaCl, 1 mM EDTA, 1.5% sarkosyl, 2% Triton-X-100, 1 mM DTT and protease inhibitors), followed by short sonication on ice (e.g. 3 times 20 seconds at middle power) and centrifugation. Cleared supernatants were incubated under gentle rotation with glutathione beads (Amersham Pharmacia) for 2 hrs at 4° C. Finally, beads were washed several time in washing buffer (20 mM Tris pH 8.0, 200 mM NaCl, 1 mM EDTA, 1 mM DTT, 1 mM MgCl2, 0.5% NP40), and stored in storage buffer (20 mM Tris pH 8.0, 200 mM NaCl, 1 mM EDTA, 1 mM DTT, 1 mM MgCl2, 10% glycerol, 0.5% NP40, and proteinase inhibitors). The quality of the preparations was checked by SDS-gel electrophoresis by standard methods well known by persons skilled in the art. […]

CN1CCN(Cc2ccc(/C=N/Nc3ccc([N+](=O)[O-])cc3S(=O)(=O)Nc3ccccc3Cl)cc2)CC1 [TGC0011438]
CA (Wnt pathway): 3 (41-60% inhibition) | ELISA (βCatenin-BCL9): 1 (0-20% inhibition)

O=[N+]([O-])c1ccc(N/N=C/c2ccc(O)cc2)c(S(=O)(=O)Nc2ccccc2Cl)c1 [TGC0011359]
CA (Wnt pathway): 3 (41-60% inhibition) | ELISA (βCatenin-BCL9): 3 (41-60% inhibition)

COc1ccc(/C=N/Nc2ccc([N+](=O)[O-])cc2S(=O)(=O)Nc2ccccc2Cl)cc1OC [TGC0011564]
CA (Wnt pathway): 3.5 | ELISA (βCatenin-BCL9): 1 (0-20% inhibition)

Nc1ccc(NC(=O)Cc2ccc(Cl)cc2)c(S(=O)(=O)Nc2ccccc2Cl)c1 [TGC0011573]
CA (Wnt pathway): 1 (0-20% inhibition) | ELISA (βCatenin-BCL9): 3 (41-60% inhibition)

O=[N+]([O-])c1ccc(NNCc2cc(F)cc(F)c2)c(S(=O)(=O)Nc2ccccc2Cl)c1 [TGC0012266]
CA (Wnt pathway): 1.5 | ELISA (βCatenin-BCL9): 2.5

CS(=O)(=O)c1ccc(S(=O)(=O)NNc2ccc([N+](=O)[O-])cc2S(=O)(=O)Nc2ccccc2Cl)cc1 [TGC0011577]
CA (Wnt pathway): 1 (0-20% inhibition) | ELISA (βCatenin-BCL9): 4 (61-80% inhibition)

COc1ccc(/C=N/Nc2ccc(N)cc2S(=O)(=O)Nc2ccccc2Cl)cc1OC [TGC0011584]
CA (Wnt pathway): 3 (41-60% inhibition) | ELISA (βCatenin-BCL9): 1 (0-20% inhibition)

N#Cc1ccc(Cl)c(NS(=O)(=O)c2ccccc2Br)c1 [TGC0011492]
CA (Wnt pathway): 1 (0-20% inhibition) | ELISA (βCatenin-BCL9): 1 (0-20% inhibition)

Cc1ncc(CO)c(/C=N/Nc2ccc([N+](=O)[O-])cc2S(=O)(=O)Nc2ccccc2Cl)c1O [TGC0010626]
CA (Wnt pathway): 4.5 | ELISA (βCatenin-BCL9): 3 (41-60% inhibition)

COC(=O)c1ccccc1S(=O)(=O)Nc1ccccc1Cl [TGC0011601]
CA (Wnt pathway): 1 (0-20% inhibition) | ELISA (βCatenin-BCL9): 1 (0-20% inhibition)
